The values that follow come from US20090053138A1, “Stabilized Aptamers to Platelet Derived Growth Factor and their Use as Oncology Therapeutics” (priority 2002, published 2009).

Data set [1] has as its target T1, rat PDGF-BB (Rattus norvegicus, UniProt Q05028).
T1 construct: purchased PeproTech, Rocky Hill, N.J
The data set can be described thus: Cell migration assay, 3T3 cells. The format is cell-based. Particulars: 100 nM aptamer, 5 nM PDGF BB, 24 well format. On the procedure:
(§1) PDGF is a strong mitogen as well as a chemoattractant. […] In the cell migration assay 80,000 cells 3T3 rat fibroblasts (ATCC, Manassas, Va.) or RPE (retinal pigmented epithelial) cells (ATCC, Manassas, Va.) were plated per well into a 24 well plate with 8 micron filters (BD Biosciences, Discovery Labware, Bedford, Mass.). 0.5 ml DMEM/0.2% FCS was added to the top chamber and 0.8 ml DMEM/0.2% FCS was added to the bottom chamber. The system was equilibrated by incubating for 4 hours at 37 degrees celsius. Human PDGF-BB (PeproTech, Rocky Hill, N.J.) (for RPE cells) or rat PDGF-BB (PeproTech) (for 3T3 cells) was added to the bottom chamber (0 ng/ml-100 ng/ml final concentration). The system was incubated 4 hours to 12 hours. Cells were scraped off on the top of filter with a Q-tip. The cells that migrated to the bottom of the filter were fixed with a mixture of cold 50% Methanol/50% Acetone for 3 minutes.
(§2) Following incubation filters were washed with 1×PBS and stained with Giemsa Stain (Matheson Coleman and Bell) for 1-2 hours and migration was visualized by taking pictures on a Zeiss Axiovert 200M microscope.

In data set [2] the target is PDGF BB (Homo sapiens, UniProt P01127). Description: Cell migration assay, RPE cells. The format is cell-based. The arrangement: purchased PeproTech, Rocky Hill, N.J. On the procedure: as §1, with “The system was incubated 4 hours to 12 hours.” left out
as §2
The 96 well assay starts by bringing plates and reagents to room temperature. 150 ul of DMEM/0.2% FBS was added with or without chemoattractant to the wells of the feeder tray.
Following incubation, the migration chamber plate was removed and the non-migratory cells were discarded. The number of migratory cells was quantitated according to manufacturer's recommended instructions. In brief, media from the top side was removed by flipping out the remaining cell suspension, and was placed onto a new feeder tray that contains 150 ul of pre-warmed Cell Detachment Solution. This mixture was incubated for 30 minutes at 37 degrees celsius. CyQuant GR Dye 1:75 was diluted with 4× Lysis Buffer and 50 ul of the Lysis Buffer/Dye Solution was added to each well containing 150 ul of the solution containing migratory cells.

Where [3] appears, read: 100 nM aptamer, 5 nM PDGF BB, 24 well format.

{PEG40k} = 40 kDa polyethylene glycol; [invdT] = inverted (3'-3') thymidine; [HEG] = hexaethylene glycol spacer

Chain of PDGF BB (P01127 82-190 limits assumed): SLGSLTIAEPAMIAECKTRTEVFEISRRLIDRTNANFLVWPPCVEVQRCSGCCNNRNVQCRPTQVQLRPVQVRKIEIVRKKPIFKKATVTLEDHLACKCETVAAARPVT
T1 sequence (Q05028 66-174 limits assumed): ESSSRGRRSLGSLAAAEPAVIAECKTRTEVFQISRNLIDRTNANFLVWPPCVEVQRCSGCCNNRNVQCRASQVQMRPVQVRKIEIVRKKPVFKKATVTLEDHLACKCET

In the case of “5′-(SEQ ID NO.4)-HEG-(SEQ ID NO:5)-HEG-(SEQ ID NO:6)-3 (chain 1 CAGCGUACG; chain 2 CGTACCGATUCA; chain 3 TGAAGCUG; HEG spacers joining pieces; synthetic aptamer; modified_base (4)..(4) cytidine is 2′-fluoro; modified_base (5)..(5) gm; modified_base (6)..(6) uridine is 2′-fluoro; modified_base (8)..(8) cytidine is 2′-fluoro; modified_base (9)..(9) gm; modified_base (7)..(7) gm; modified_base (10)..(10) uridine is 2′-fluoro; modified_base (11)..(11) cytidine is 2′-fluoro; modified_base (12)..(12) adenosine is 2′-O-Methyl; modified_base (6)..(6) cytidine is 2′-fluoro; modified_base (7)..(7) uridine is 2′-fluoro; modified_base (8)..(8) gm) [ARC128, reference compound]”, the “migration of 3T3 cells” value in data set [1] is on record as “no activity”. Further, the “migration of RPE cells” value in data set [2] (setting [3]) is given as “no activity”; in data set [2] (96 well format), “did not affect migration”.

With “5′-[40 K PEG]-(SEQ ID NO:1)-HEG-(SEQ ID NO:2)-HEG-(SEQ ID NO:3)-3′-dT-3′ (chain 1 CAGGCUACG; chain 2 CGTAGAGCAUCA; chain 3 TGATCCUG; piece 1: 2'-fluoro at 6, 8, 2'-O-methyl at 9, 5' {PEG40k}, 3' [HEG], other sugars and backbone not given here; piece 2: 2'-O-methyl at 5, 7, 12, 2'-fluoro at 10, 11, 3' [HEG], other sugars and backbone not given here; piece 3: 2'-fluoro at 5, 6, 7, 2'-O-methyl at 8, 3' [invdT], other sugars and backbone not given here) [ARC127]”, the “migration of 3T3 cells” value in data set [1] is “inhibits the effects of 5 nM PDGF-BB”. The “migration of RPE cells” value in data set [2] (setting [3]) is recorded as “inhibits the effects of 5 nM PDGF-BB”; in data set [2] (96 well format), “reduced migration levels to background”.
